# Tests used:
# [1] = system: rat; settings: Prenatal developmental toxicity study; sprague dawley; Oral; Gavage/Intubation; dose end: 17 GD; group: maternal; systemic / in life observation / body weight / body weight + systemic / in life observation / body weight / body weight gain
# [2] = system: rat; settings: Prenatal developmental toxicity study; sprague dawley; Oral; Gavage/Intubation; dose end: 17 GD; group: maternal; systemic / in life observation / body weight / body weight + systemic / in life observation / body weight / body weight gain + systemic / in…
# [3] = system: rabbit; settings: Prenatal developmental toxicity study, new zealand white, Oral, Gavage/Intubation, dose end: 18 GD
# [4] = system: rat; settings: Multigenerational reproductive toxicity study, other, Oral, Gavage/Intubation, dose end: 2 generation
# [5] = system: rat; settings: Prenatal developmental toxicity study, other, Oral, Gavage/Intubation, dose end: 15 GD
# [6] = system: dog; settings: Chronic toxicity, beagle, Oral, Gavage/Intubation, dose end: 52 week, group: systemic
# [7] = system: mouse; settings: Carcinogenicity, cd1, Oral, Water, dose end: 104 week, group: systemic
# [8] = system: rabbit; settings: Prenatal developmental toxicity study, new zealand white, Oral, Gavage/Intubation, dose end: 19 GD
# [9] = system: rat; settings: Chronic toxicity, other, Oral, Gavage/Intubation, dose end: 91 week, group: systemic
# [10] = system: rabbit; settings: Prenatal developmental toxicity study, new zealand white, Oral, Gavage/Intubation, dose end: 18 GD; remark: listed apart in the source
# [11] = system: mouse; settings: Carcinogenicity, cd1, Oral, Feed, dose end: 98 week, group: systemic
# [12] = system: dog; settings: Chronic toxicity; beagle; Oral; Capsule; dose end: 52 week; group: systemic; systemic / clinical chemistry / cholesterol / cholesterol + systemic / hematology / lymphocyte / lymphocyte + systemic / in life observation…
# [13] = system: rat; settings: Multigenerational reproductive toxicity study, other, Oral, Feed, dose end: 2 generation
# [14] = system: rat; settings: Prenatal developmental toxicity study, other, Oral, Gavage/Intubation, dose end: 15 GD; remark: listed apart in the source
# [15] = system: mouse; settings: Carcinogenicity; cd1; Oral; Feed; dose end: 78 week; group: systemic; systemic / in life observation / body weight / body weight gain + systemic / pathology microscopic / epididymis / concretion + systemic / …
# [16] = system: rabbit; settings: Prenatal developmental toxicity study; new zealand white; Oral; Gavage/Intubation; dose end: 19 GD; group: maternal; reproductive / reproductive performance / postimplantation loss / postimplantation loss + reproductive / reproductive performance / …
# [17] = system: rat; settings: Combined chronic toxicity/carcinogenicity; sprague dawley; Oral; Feed; dose end: 104 week; group: systemic; systemic / in life observation / body weight / body weight
# [18] = system: rat; settings: Subchronic oral toxicity in rodents, sprague dawley, Feed, dose end: 13 week, group: systemic
# [19] = system: rat; settings: Other (NonGuideline or Guideline Not Listed); sprague dawley; Oral; Gavage/Intubation; dose end: 7 day; group: cannot be grouped; systemic / clinical chemistry / alanine aminotransferase (alt/sgpt) / alanine aminotransferase (alt/sgpt) + systemic / clinical chemistry / …
# [20] = system: rat; settings: Subchronic oral toxicity in rodents, other, Feed, dose end: 13 week, group: systemic, systemic / in life observation / body weight / body weight gain + systemic / pathology microscopic / liver / infiltration cellular + …
# [21] = system: dog; settings: Subchronic oral toxicity in nonrodent, beagle, Feed, dose end: 13 week, group: systemic, systemic / in life observation / body weight / body weight gain + systemic / in life observation / food consumption / food consumption
# [22] = system: rat; settings: Prenatal developmental toxicity study, other, Oral, Gavage/Intubation, dose end: 15 GD; remark: listed apart in the source
# [23] = system: rat; settings: Sub-acute repeat dose toxicity, sprague dawley, Oral, Feed, dose end: 28 day, group: systemic
# [24] = group: developmental, systemic / in life observation / body weight / fetal weight
# [25] = group: maternal, systemic / in life observation / clinical signs / defecation + systemic / in life observation / mortality / mortality
# [26] = group: maternal, systemic / in life observation / clinical signs / defecation + systemic / in life observation / mortality / mortality + systemic / in life …
# [27] = group: offspring, developmental / offspring survival late / viability index / viability index + systemic / in life observation / body weight / offspring (pup…
# [28] = group: parental, systemic / in life observation / body weight / body weight + systemic / in life observation / body weight / body weight gain + systemic / in…
# [29] = group: developmental, developmental / developmental malformation / bone / bipartite ossification + developmental / developmental malformation / bone / thickened…
# [30] = group: maternal, systemic / in life observation / body weight / body weight gain
# [31] = systemic / clinical chemistry / cholesterol / cholesterol + systemic / hematology / mean corpuscular (cell) volume (mcv) / mean corpuscular…
# [32] = systemic / hematology / mean corpuscular hemoglobin (mch) / mean corpuscular hemoglobin (mch)
# [33] = systemic / in life observation / body weight / body weight gain
# [34] = systemic / in life observation / mortality / mortality + systemic / pathology microscopic / kidney / degeneration + systemic / pathology …
# [35] = group: developmental, developmental / developmental malformation / brain / [other] + developmental / developmental malformation / general / crown-rump length + …
# [36] = group: maternal, systemic / organ weight / uterus / nos
# [37] = systemic / clinical chemistry / glucose / glucose
# [38] = group: developmental, developmental / developmental malformation / brain / misshapen cerebrum + developmental / developmental malformation / eye / malpositioned…
# [39] = systemic / pathology microscopic / liver / adenoma + systemic / pathology microscopic / liver / adenoma/carcinoma combined
# [40] = group: offspring, systemic / in life observation / body weight / offspring (pup) weight
# [41] = group: parental, systemic / in life observation / body weight / body weight gain + systemic / in life observation / food consumption / food consumption
# [42] = group: developmental, developmental / developmental malformation / bone / bipartite ossification + developmental / developmental malformation / bone / cervical + …
# [43] = group: maternal, reproductive / reproductive performance / postimplantation loss / postimplantation loss + reproductive / reproductive performance / …
# [44] = systemic / clinical chemistry / alanine aminotransferase (alt/sgpt) / alanine aminotransferase (alt/sgpt) + systemic / clinical chemistry / …
# [45] = group: developmental, developmental / developmental malformation / bone / unossified + developmental / developmental malformation / bone / full supernumerary + …
# [46] = group: maternal, systemic / in life observation / body weight / body weight gain + systemic / in life observation / body weight / body weight + systemic / in…
# [47] = systemic / clinical chemistry / lactic acid dehydrogenase (ldh) / lactic acid dehydrogenase (ldh) + systemic / clinical chemistry / sorbitol…
smiles,measurement,setting,value
NCc1cccc(C2CCN(C(=O)c3ccc(C#Cc4ccccc4F)o3)CC2)c1 [AVE5638],LEL,[1],40 mg/kg/day
same,LOAEL,[1],40 mg/kg/day
same,NEL,[1],5 mg/kg/day
same,NOAEL,[1],5 mg/kg/day
same,LEL,[2],40 mg/kg/day
same,LOAEL,[2],40 mg/kg/day
same,NEL,[2],5 mg/kg/day
same,NOAEL,[2],5 mg/kg/day
same,LEL,[3]; [24],225 mg/kg/day
same,LOAEL,[3]; [24],225 mg/kg/day
same,NEL,[3]; [24],100 mg/kg/day
same,NOAEL,[3]; [24],100 mg/kg/day
same,LEL,[3]; [25],100 mg/kg/day
same,LOAEL,[3]; [25],100 mg/kg/day
same,NEL,[3]; [26],25 mg/kg/day
same,NOAEL,[3]; [26],25 mg/kg/day
N#CN [Cyanamide],LEL,[4]; [27],1.25 mg/kg/day
same,LOAEL,[4]; [27],1.25 mg/kg/day
same,NEL,[4]; [27],< 1.25 mg/kg/day
same,NOAEL,[4]; [27],< 1.25 mg/kg/day
same,LEL,[4]; [28],3.75 mg/kg/day
same,LOAEL,[4]; [28],3.75 mg/kg/day
same,NEL,[4]; [28],1.25 mg/kg/day
same,NOAEL,[4]; [28],1.25 mg/kg/day
same,LEL,[5]; [29],90 mg/kg/day
same,LOAEL,[5]; [29],90 mg/kg/day
same,NEL,[5]; [29],30 mg/kg/day
same,NOAEL,[5]; [29],30 mg/kg/day
same,LEL,[5]; [30],10 mg/kg/day
same,LOAEL,[5]; [30],10 mg/kg/day
same,NEL,[5]; [30],< 10 mg/kg/day
same,NOAEL,[5]; [30],< 10 mg/kg/day
same,LOAEL,[6]; [31],2 mg/kg/day
same,NOAEL,[6]; [31],0.4 mg/kg/day
same,LEL,[6]; [32],0.4 mg/kg/day
same,NEL,[6]; [32],< 0.4 mg/kg/day
same,LEL,[7]; [33],5 mg/kg/day
same,NEL,[7]; [33],< 5 mg/kg/day
same,LOAEL,[7]; [34],16.9 mg/kg/day
same,NOAEL,[7]; [34],6.9 mg/kg/day
same,LOAEL,[8]; [35],36 mg/kg/day
same,NEL,[8]; [35],4 mg/kg/day
same,NOAEL,[8]; [35],12 mg/kg/day
same,LEL,"[8]; group: developmental, developmental / developmental malformation / eye / retina fold",12 mg/kg/day
same,LOAEL,[8]; [30],12 mg/kg/day
same,LEL,[8]; [36],4 mg/kg/day
same,NEL,[8]; [36],< 4 mg/kg/day
same,NOAEL,"[8]; group: maternal, systemic / organ weight / uterus / nos + systemic / in life observation / body weight / body weight gain + reproductive / reproductive …",4 mg/kg/day
same,LEL,[9]; [37],1 mg/kg/day
same,NEL,[9]; [37],< 1 mg/kg/day
same,LOAEL,[9]; systemic / in life observation / body weight / body weight gain + systemic / pathology microscopic / thyroid gland / colloid content,7.5 mg/kg/day
same,NOAEL,[9]; systemic / in life observation / body weight / body weight gain + systemic / pathology microscopic / thyroid gland / colloid content + …,2.5 mg/kg/day
CC(Oc1cccc(Cl)c1)C(=O)O (centres undefined) [Cloprop],LEL,[10]; [38],200 mg/kg/day
same,LOAEL,[10]; [38],200 mg/kg/day
same,NEL,[10]; [38],100 mg/kg/day
same,NOAEL,[10]; [38],100 mg/kg/day
same,LEL,[10]; [30],200 mg/kg/day
same,LOAEL,[10]; [30],200 mg/kg/day
same,NEL,[10]; [30],100 mg/kg/day
same,NOAEL,[10]; [30],100 mg/kg/day
same,LEL,[11]; [39],98 mg/kg/day
same,NEL,[11]; [39],< 98 mg/kg/day
same,LOAEL,[11]; systemic / pathology microscopic / liver / hypertrophy,402 mg/kg/day
same,NOAEL,[11]; systemic / pathology microscopic / liver / hypertrophy + systemic / pathology microscopic / liver / adenoma + systemic / pathology …,98 mg/kg/day
COC(=O)c1c(Cl)nn(C)c1S(=O)(=O)NC(=O)Nc1nc(OC)cc(OC)n1 [Halosulfuron-methyl],LEL,[12],10 mg/kg/day
same,LOAEL,[12],10 mg/kg/day
same,NEL,[12],1 mg/kg/day
same,NOAEL,[12],1 mg/kg/day
same,LEL,[13]; [40],61 mg/kg/day
same,LOAEL,[13]; [40],> 274 mg/kg/day
same,NEL,[13]; [40],7.4 mg/kg/day
same,NOAEL,[13]; [40],≥ 274 mg/kg/day
same,LEL,"[13]; group: parental, systemic / in life observation / body weight / body weight",69.7 mg/kg/day
same,NEL,"[13]; group: parental, systemic / in life observation / body weight / body weight + systemic / in life observation / food consumption / food consumption",8.9 mg/kg/day
same,LOAEL,[13]; [41],223 mg/kg/day
same,NOAEL,[13]; [41],50.4 mg/kg/day
same,LEL,[14]; [42],750 mg/kg/day
same,LOAEL,[14]; [42],750 mg/kg/day
same,NEL,[14]; [42],250 mg/kg/day
same,NOAEL,[14]; [42],250 mg/kg/day
same,LEL,[14]; [43],750 mg/kg/day
same,LOAEL,[14]; [43],750 mg/kg/day
same,NEL,[14]; [43],250 mg/kg/day
same,NOAEL,[14]; [43],250 mg/kg/day
same,LEL,[15],972 mg/kg/day
same,LOAEL,[15],972 mg/kg/day
same,NEL,[15],410 mg/kg/day
same,NOAEL,[15],410 mg/kg/day
same,LEL,[16],150 mg/kg/day
same,LOAEL,[16],150 mg/kg/day
same,NEL,[16],50 mg/kg/day
same,NOAEL,[16],50 mg/kg/day
same,LEL,[17],139 mg/kg/day
same,LOAEL,[17],139 mg/kg/day
same,NEL,[17],56.3 mg/kg/day
same,NOAEL,[17],56.3 mg/kg/day
same,LOAEL,[18]; [44],497 mg/kg/day
same,NEL,[18]; [44],28.8 mg/kg/day
same,NOAEL,[18]; [44],116 mg/kg/day
same,LEL,[18]; systemic / pathology microscopic / kidney / hemosiderosis,116 mg/kg/day
Fc1ccccc1[C@@H](F)COC1CCC(Nc2ncnc3[nH]ncc23)CC1 (some centres undefined) [MK-968],LEL,[19],300 mg/kg/day
same,LOAEL,[19],> 750 mg/kg/day
same,NEL,[19],10 mg/kg/day
same,NOAEL,[19],≥ 750 mg/kg/day
O=C(O)COc1ccc(Cl)cc1 [4-Chlorophenoxyacetic acid],LEL,[20],517 mg/kg/day
same,LOAEL,[20],517 mg/kg/day
same,NEL,[20],132 mg/kg/day
same,NOAEL,[20],132 mg/kg/day
same,LEL,[21],17.4 mg/kg/day
same,LOAEL,[21],17.4 mg/kg/day
same,NEL,[21],4.05 mg/kg/day
same,NOAEL,[21],4.05 mg/kg/day
same,LOAEL,"[22]; group: developmental, developmental / developmental malformation / bone / unossified",300 mg/kg/day
same,LEL,"[22]; group: developmental, developmental / developmental malformation / bone / unossified + developmental / developmental malformation / bone / full supernumerary",300 mg/kg/day
same,NEL,[22]; [45],150 mg/kg/day
same,NOAEL,[22]; [45],150 mg/kg/day
same,LEL,[22]; [30],300 mg/kg/day
same,LOAEL,[22]; [30],300 mg/kg/day
same,NEL,[22]; [46],150 mg/kg/day
same,NOAEL,[22]; [46],150 mg/kg/day
ClC(Cl)(Cl)c1ccccc1 [Benzotrichloride],LOAEL,[23]; [47],> 25 mg/kg/day
same,NEL,[23]; [47],0.025 mg/kg/day
same,NOAEL,[23]; [47],≥ 25 mg/kg/day
same,LEL,[23]; systemic / clinical chemistry / sorbitol dehydrogenase / sorbitol dehydrogenase,0.25 mg/kg/day
